Measured values from DBAASP.
Values after ≈ are worked out from the molar mass of the structure shown.

Key:
Experiment in all cases: ≥ marks a high value that may be exact or a test limit, other limits are often not marked, values filed in µg/mL are converted to µM
[1] = test system: Bacillus subtilis ATCC 6633
[2] = test system: Pseudomonas aeruginosa ATCC BAA-427
[3] = test system: Klebsiella pneumoniae ATCC 27736
[4] = test system: Pseudomonas fluorescens NCIMB 9046
[5] = test system: Cronobacter sakazakii DSM 4485
[6] = test system: Cronobacter muytjensii ATCC 51329
[7] = test system: Salmonella enterica subsp. enterica serovar Typhimurium LT2
[8] = test system: Cronobacter sakazakii DPC 6440
[9] = test system: Staphylococcus aureus RF122
[10] = test system: Staphylococcus aureus RN4220
[11] = test system: Staphylococcus aureus NCTC 8325-4
[12] = test system: Staphylococcus aureus Newman
[13] = test system: Cronobacter sakazakii ATCC BAA-894
[14] = test system: Klebsiella pneumoniae NCIMB 13218
[15] = test system: Staphylococcus aureus SA113
[16] = test system: Escherichia coli NCIMB 11843
[17] = test system: Pseudomonas aeruginosa 910
[18] = test system: Pseudomonas aeruginosa PAO1
[19] = test system: Pseudomonas aeruginosa 919
[20] = test system: Pseudomonas aeruginosa 253
[21] = test system: Escherichia coli DH5alpha
Staphylococcus xylosus = test system: Staphylococcus xylosus
[22] = test system: Trichosporon beigelii KCTC 7707
[23] = test system: Escherichia coli KCTC 1682
[24] = test system: Salmonella typhimurium KCTC 1926
[25] = test system: Bacillus subtilis KCTC 1918
[26] = test system: Pseudomonas aeruginosa KCTC 1637
[27] = test system: Candida albicans TIMM 1768
[28] = test system: Staphylococcus aureus KCTC 1621
[29] = test system: Staphylococcus aureus ATCC 29213
[30] = test system: Escherichia coli ATCC 25922
[31] = test system: Candida albicans ATCC 37092
[32] = test system: Corynebacterium glutamicum ATCC 13032
[33] = test system: Staphylococcus aureus ATCC 9144
Escherichia coli HB101 = test system: Escherichia coli HB101
[34] = test system: Pseudomonas aeruginosa ATCC 27853

SMILES: CC[C@H](C)[C@H](NC(=O)CNC(=O)[C@H](CCCN=C(N)N)NC(=O)[C@H](C)NC(=O)[C@H](Cc1ccccc1)NC(=O)[C@H](Cc1cnc[nH]1)NC(=O)[C@H](Cc1cnc[nH]1)NC(=O)[C@H](Cc1ccccc1)NC(=O)[C@@H](N)Cc1ccccc1)C(=O)N[C@H](C(=O)N[C@@H](Cc1cnc[nH]1)C(=O)N[C@H](C(=O)NCC(=O)N[C@@H](CCCCN)C(=O)N[C@H](C(=O)N[C@H](C(=O)N[C@@H](Cc1cnc[nH]1)C(=O)N[C@@H](CCCN=C(N)N)C(=O)N[C@@H](CC(C)C)C(=O)N[C@H](C(=O)N[C@H](C(=O)NCC(N)=O)[C@@H](C)O)C(C)C)[C@@H](C)CC)[C@@H](C)O)C(C)C)C(C)C [FFHHFARGIVHVGKTIHRLVTG]
- MIC [1]: 16 µM (≈ 40.5 µg/mL)
- MIC [2]: 24 µM (≈ 60.7 µg/mL)
- MIC [3]: 12 µM (≈ 30.3 µg/mL)

SMILES: CC[C@H](C)[C@H](N)C(=O)N[C@@H](CCCCN)C(=O)N[C@@H](Cc1cnc[nH]1)C(=O)N[C@@H](CCC(N)=O)C(=O)NCC(=O)N[C@@H](CC(C)C)C(=O)N1CCC[C@H]1C(=O)N[C@@H](CCC(N)=O)C(=O)N[C@@H](C)C(=O)O [IKHQGLPQA]
- MIC [4]: ≥ 2500 µM
- MIC [5]: ≥ 2500 µM
- MIC [6]: ≥ 2500 µM
- MIC [7]: ≥ 2500 µM
- MIC [8]: ≥ 625 µM
- MIC [9]: ≥ 625 µM
- MIC [10]: ≥ 625 µM
- MIC [11]: ≥ 2500 µM
- MIC [12]: ≥ 2500 µM
- MIC [13]: ≥ 1250 µM
- MIC [14]: ≥ 2500 µM
- MIC [15]: ≥ 2500 µM
- MIC [16]: ≥ 2500 µM

SMILES: CC[C@H](C)[C@H](N)C(=O)N[C@@H](CCCCN)C(=O)N[C@@H](Cc1cnc[nH]1)C(=O)N[C@@H](CCC(N)=O)C(=O)NCC(=O)N[C@@H](CCCN=C(N)N)C(=O)N1CCC[C@H]1C(=O)N[C@@H](CCC(N)=O)C(=O)N[C@@H](CCC(=O)O)C(=O)O [IKHQGRPQE]
- MIC [4]: ≥ 2500 µM
- MIC [5]: ≥ 2500 µM
- MIC [6]: ≥ 2500 µM
- MIC [7]: ≥ 2500 µM
- MIC [8]: ≥ 2500 µM
- MIC [9]: ≥ 2500 µM
- MIC [10]: ≥ 2500 µM
- MIC [11]: ≥ 2500 µM
- MIC [12]: ≥ 2500 µM
- MIC [13]: ≥ 2500 µM
- MIC [14]: ≥ 2500 µM
- MIC [15]: ≥ 2500 µM
- MIC [16]: ≥ 2500 µM

SMILES: CC[C@H](C)[C@H](N)C(=O)N[C@@H](CC(C)C)C(=O)N[C@@H](CCCCN)C(=O)N[C@@H](Cc1c[nH]c2ccccc12)C(=O)N[C@@H](CCCCN)C(=O)N[C@@H](CCSC)C(=O)N[C@@H](Cc1ccccc1)C(=O)N[C@@H](CCCCN)C(=O)N[C@@H](Cc1c[nH]c2ccccc12)C(=O)N[C@@H](CCCCN)C(=O)N[C@@H](Cc1c[nH]c2ccccc12)C(=O)N[C@@H](Cc1ccccc1)C(=O)N[C@@H](CCCN=C(N)N)C(N)=O [ILKWKMFKWKWFR]
- MIC [17]: 4 µM (≈ 7.59 µg/mL)
- MIC [18]: 2 µM (≈ 3.79 µg/mL)
- MIC [19]: 16 µM (≈ 30.3 µg/mL)
- MIC [20]: 16 µM (≈ 30.3 µg/mL)

SMILES: NCCCC[C@H](NC(=O)[C@H](CCCN=C(N)N)NC(=O)[C@H](CCCCN)NC(=O)[C@H](CCCCN)NC(=O)[C@H](CCCN=C(N)N)NC(=O)[C@@H](N)CCCCN)C(=O)O [KRKKRK]
- MIC [21]: ≥ 64 µM
- MIC (Staphylococcus xylosus): 16 µM (≈ 13.5 µg/mL)

SMILES: CC(C)C[C@H](NC(=O)[C@H](CCCCN)NC(=O)[C@H](CCCCN)NC(=O)[C@H](CC(C)C)NC(=O)[C@H](CC(C)C)NC(=O)[C@H](CCCCN)NC(=O)[C@H](CCCCN)NC(=O)[C@H](CC(C)C)NC(=O)[C@H](CC(C)C)NC(=O)[C@@H]1CCCN1C(=O)[C@H](CCCCN)NC(=O)[C@H](CCCCN)NC(=O)[C@H](Cc1c[nH]c2ccccc12)NC(=O)[C@@H](N)CCCCN)C(N)=O [KWKKPLLKKLLKKL]
- MIC [22]: 1.56 µM (≈ 2.75 µg/mL)
- MIC [23]: 6.25 µM (≈ 11 µg/mL)
- MIC [24]: 1.56 µM (≈ 2.75 µg/mL)
- MIC [25]: 3.12 µM (≈ 5.5 µg/mL)
- MIC [26]: 3.12 µM (≈ 5.5 µg/mL)
- MIC [27]: 12.5 µM (≈ 22 µg/mL)
- MIC [28]: 6.25 µM (≈ 11 µg/mL)

SMILES: CC(C)C[C@H](NC(=O)[C@H](CCCN=C(N)N)NC(=O)[C@@H]1CCCN1C(=O)[C@@H]1CCCN1C(=O)[C@H](CCCN=C(N)N)NC(=O)[C@@H]1CCCN1)C(=O)N1CCC[C@H]1C(=O)N[C@@H](CCCN=C(N)N)C(=O)N1CCC[C@H]1C(=O)N[C@@H](CCCN=C(N)N)C(=O)N1CCC[C@H]1C(=O)N[C@@H](CCCN=C(N)N)C(=O)N1CCC[C@H]1C(=O)N[C@@H](CC(C)C)C(=O)N1CCC[C@H]1C(=O)N[C@@H](Cc1ccccc1)C(=O)N1CCC[C@H]1C(=O)N[C@@H](CCCN=C(N)N)C(=O)N1CCC[C@H]1C(=O)NCC(=O)O [PRPPRLPRPRPRPLPFPRPG]
- MIC [29]: > 500 µM
- MIC [30]: 18.1 µM (≈ 42.7 µg/mL)
- MIC [31]: 17.6 µM (≈ 41.5 µg/mL)

SMILES: CC[C@H](C)[C@H](NC(=O)[C@H](CC(C)C)NC(=O)[C@@H](NC(=O)[C@H](CC(C)C)NC(=O)[C@@H](NC(=O)[C@H](CCCCN)NC(=O)[C@@H](N)CCCN=C(N)N)[C@@H](C)CC)[C@@H](C)CC)C(=O)N[C@@H](CCCCN)C(=O)N[C@@H](CCCN=C(N)N)C(=O)N[C@@H](CCCCN)C(=O)O [RKILILIKRK]
- MIC [21]: 16 µM (≈ 20.5 µg/mL)
- MIC (Staphylococcus xylosus): 4 µM (≈ 5.12 µg/mL)

SMILES: CC[C@H](C)[C@H](NC(=O)[C@@H](NC(=O)[C@H](CCCN=C(N)N)NC(=O)[C@H](Cc1c[nH]c2ccccc12)NC(=O)[C@H](CCCN=C(N)N)NC(=O)[C@@H](N)CCCN=C(N)N)C(C)C)C(=O)N[C@H](C(=O)N[C@@H](CCCCN)C(=O)N[C@@H](Cc1c[nH]c2ccccc12)C(N)=O)C(C)C [RRWRVIVKW]
- MIC [17]: 4 µM (≈ 5.19 µg/mL)
- MIC [18]: 4 µM (≈ 5.19 µg/mL)
- MIC [19]: 4 µM (≈ 5.19 µg/mL)
- MIC [20]: 8 µM (≈ 10.4 µg/mL)

SMILES: CC[C@H](C)[C@H](NC(=O)[C@@H]1CCCN1C(=O)[C@H](CCCCN)NC(=O)[C@@H]1CCCN1C(=O)[C@H](CCCN=C(N)N)NC(=O)CNC(=O)[C@@H]1CCCN1C(=O)[C@H](Cc1ccccc1)NC(=O)[C@@H]1CCCN1C(=O)[C@H](CCCN=C(N)N)NC(=O)[C@@H]1CCCN1C(=O)[C@H](CCCN=C(N)N)NC(=O)CNC(=O)[C@@H]1CCCN1C(=O)[C@H](CO)NC(=O)[C@@H]1CCCN1C(=O)[C@H](Cc1c[nH]c2ccccc12)NC(=O)[C@H](CCCN=C(N)N)NC(=O)[C@@H](N)CO)C(=O)N[C@@H](Cc1ccccc1)C(=O)O [SRWPSPGRPRPFPGRPKPIF]
- MIC [32]: 17.7 µM (≈ 41.2 µg/mL)
- MIC [33]: ≥ 100 µM
- MIC [30]: > 100 µM
- MIC (Escherichia coli HB101): ≥ 35.4 µM
- MIC [34]: > 100 µM

SMILES: CC(C)C[C@H](NC(=O)[C@H](CC(C)C)NC(=O)[C@H](CC(N)=O)NC(=O)[C@H](CC(N)=O)NC(=O)[C@H](CC(C)C)NC(=O)[C@@H](N)C(C)C)C(=O)N[C@@H](CCCN=C(N)N)C(=O)O [VLNNLLR]
- MIC [4]: ≥ 2500 µM
- MIC [5]: ≥ 2500 µM
- MIC [6]: ≥ 1250 µM
- MIC [7]: ≥ 1250 µM
- MIC [8]: ≥ 625 µM
- MIC [9]: ≥ 1250 µM
- MIC [10]: ≥ 1250 µM
- MIC [11]: ≥ 312 µM
- MIC [12]: ≥ 1250 µM
- MIC [13]: ≥ 1250 µM
- MIC [14]: ≥ 1250 µM
- MIC [15]: ≥ 312 µM
- MIC [16]: ≥ 2500 µM
- MIC [34]: 64 µM (≈ 53.8 µg/mL)
